These compounds were tested against T1, bovine cardiac myosin (Bos taurus, UniProt Q9BE39) (assay: Myosin inhibition assay (PK/LDH-coupled ATPase, bovine cardiac myofibrils)). Settings: calcium concentration giving 50% activation (pCa50), read-out: Biochemical Activity (pCa50).
T1 construct: The source of cardiac myosin was from bovine heart in the form of skinned myofibrils; from tissue; host or cells: bovine heart (skinned myofibrils)
Assay type: biochemical
Experimental: Small molecule agents were assessed for their ability to inhibit the enzymatic activity of bovine cardiac myosin using a biochemical assay that couples the release of ADP (adenosine diphosphate) from cardiac myosin to an enzymatic coupling system consisting of pyruvate kinase and lactate dehydrogenase (PK/LDH) and monitoring the absorbance decrease of NADH (at 340 nm) as a function of time. PK converts ADP to ATP (adenosine triphosphate) by converting PEP (phosphoenolpyruvate) to pyruvate. Pyruvate is then converted to lactate by LDH by converting NADH (nicotinamide adenine dinucleotide) to NAD (oxidized nicotinamide adenine dinucleotide). The source of cardiac myosin was from bovine heart in the form of skinned myofibrils. Prior to testing small molecule agents, the bovine myofibrils were assessed for their calcium responsiveness and the calcium concentration that achieves either a 50% (pCa50) or 75% (pCa75) activation of the myofibril system was chosen as the final condition for assessing the inhibitory activity of the small molecule agents. All enzymatic activity was measured in a buffered solution containing 12 mM PIPES (piperazine-N,N′-bis(2-ethanesulfonic acid), 2 mM magnesium chloride at pH 6.8 (PM12 buffer). Final assay conditions were 1 mg/mL of bovine cardiac myofibrils, 0.4 mM PK/LDH, 50 uM ATP, 0.1 mg/mL BSA (bovine serum albumin), 10 ppm antifoam, 1 mM DTT, 0.5 mM NADH, 1.5 mM PEP at the desired free calcium concentration required to achieve either 50% or 75% activation of the myofibrils.
A dilution series of compound was created in DMSO such that the final desired concentration of compound would be achieved in a volume of 100 μL with a fixed DMSO concentration of 2% (v/v). Typically 2 μL of the dilution series were added to 96 well plate to achieve an 8 or 12 point dose response. Following the addition of 50 μL of a solution containing bovine cardiac myofibrils, PK/LDH and a solution of calcium (that achieved the desired activation), the enzymatic reaction was started with the addition of 50 μL of a solution containing ATP, PEP and NADH. The reaction progress was followed in a Molecular Devices M5e plate reader at ambient temperature using clear half area plates. The plate reader was configured to read absorbance at 340 nm in kinetics mode for 15 minutes. Data were recorded as the slope of the absorbance response to time. The slopes of the absorbance response as a function of time were normalized to slopes on the plate containing DMSO. This normalized rate was then plotted as a function of small molecule concentration and the data was fitted to a four-parameter fit using GraphPad Prism. The midpoint of this plot is the IC50 and is the concentration at which fifty percent of the total response is inhibited.

T1 sequence (Q9BE39 whole entry): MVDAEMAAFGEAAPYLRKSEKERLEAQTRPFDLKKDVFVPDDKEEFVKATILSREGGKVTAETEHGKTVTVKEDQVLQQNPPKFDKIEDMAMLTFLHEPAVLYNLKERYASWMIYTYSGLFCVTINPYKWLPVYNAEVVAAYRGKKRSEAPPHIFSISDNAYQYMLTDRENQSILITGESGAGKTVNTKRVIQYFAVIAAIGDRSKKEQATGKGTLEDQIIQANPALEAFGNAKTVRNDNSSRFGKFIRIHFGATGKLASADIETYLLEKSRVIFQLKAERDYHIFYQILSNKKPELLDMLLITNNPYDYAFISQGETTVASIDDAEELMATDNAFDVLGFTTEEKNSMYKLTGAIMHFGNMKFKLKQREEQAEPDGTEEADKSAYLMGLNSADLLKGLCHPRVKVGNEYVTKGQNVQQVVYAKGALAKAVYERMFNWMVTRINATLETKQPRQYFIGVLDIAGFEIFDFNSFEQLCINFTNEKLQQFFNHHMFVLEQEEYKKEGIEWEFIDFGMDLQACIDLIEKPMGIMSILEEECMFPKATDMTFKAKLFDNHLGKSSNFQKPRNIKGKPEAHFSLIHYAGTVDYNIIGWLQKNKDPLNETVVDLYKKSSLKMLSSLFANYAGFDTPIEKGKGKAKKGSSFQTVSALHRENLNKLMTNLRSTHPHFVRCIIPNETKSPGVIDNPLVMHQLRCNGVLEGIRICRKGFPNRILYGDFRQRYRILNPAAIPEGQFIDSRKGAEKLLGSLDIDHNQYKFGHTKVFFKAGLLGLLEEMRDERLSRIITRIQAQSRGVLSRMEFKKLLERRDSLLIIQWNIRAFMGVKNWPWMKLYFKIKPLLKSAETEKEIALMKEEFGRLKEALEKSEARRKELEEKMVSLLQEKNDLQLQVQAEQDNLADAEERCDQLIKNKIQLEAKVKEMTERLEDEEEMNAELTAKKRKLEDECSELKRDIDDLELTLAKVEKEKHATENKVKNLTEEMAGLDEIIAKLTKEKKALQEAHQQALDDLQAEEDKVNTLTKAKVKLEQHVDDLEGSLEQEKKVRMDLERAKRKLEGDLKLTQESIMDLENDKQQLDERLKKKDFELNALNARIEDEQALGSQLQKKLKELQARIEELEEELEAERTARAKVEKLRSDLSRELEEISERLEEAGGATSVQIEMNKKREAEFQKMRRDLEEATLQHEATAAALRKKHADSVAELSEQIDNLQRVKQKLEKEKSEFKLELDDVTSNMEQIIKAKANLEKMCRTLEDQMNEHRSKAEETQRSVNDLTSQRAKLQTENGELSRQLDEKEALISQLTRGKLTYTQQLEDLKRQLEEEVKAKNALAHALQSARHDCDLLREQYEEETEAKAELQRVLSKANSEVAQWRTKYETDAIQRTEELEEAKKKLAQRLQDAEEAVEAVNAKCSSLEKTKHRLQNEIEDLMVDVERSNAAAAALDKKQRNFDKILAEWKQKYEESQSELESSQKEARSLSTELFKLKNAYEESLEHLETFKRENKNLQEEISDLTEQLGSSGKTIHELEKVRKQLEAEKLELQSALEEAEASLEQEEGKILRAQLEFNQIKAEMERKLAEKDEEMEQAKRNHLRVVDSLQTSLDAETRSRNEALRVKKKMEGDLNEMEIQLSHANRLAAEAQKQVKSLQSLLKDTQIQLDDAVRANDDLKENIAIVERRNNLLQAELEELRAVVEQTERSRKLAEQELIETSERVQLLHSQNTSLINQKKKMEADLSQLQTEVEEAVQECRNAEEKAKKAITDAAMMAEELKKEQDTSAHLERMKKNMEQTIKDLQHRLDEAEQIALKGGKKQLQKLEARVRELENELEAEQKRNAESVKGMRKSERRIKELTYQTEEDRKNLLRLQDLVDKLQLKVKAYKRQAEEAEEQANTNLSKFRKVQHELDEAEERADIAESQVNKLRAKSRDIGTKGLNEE
T1 sequence (P85100 whole entry partner): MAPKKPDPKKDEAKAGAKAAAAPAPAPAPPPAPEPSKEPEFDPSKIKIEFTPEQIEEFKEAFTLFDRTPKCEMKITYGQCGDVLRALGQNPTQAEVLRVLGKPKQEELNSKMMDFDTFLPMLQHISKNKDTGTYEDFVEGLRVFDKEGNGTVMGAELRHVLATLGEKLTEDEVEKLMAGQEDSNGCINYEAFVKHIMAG
T1 sequence (Q3SZE5 whole entry partner): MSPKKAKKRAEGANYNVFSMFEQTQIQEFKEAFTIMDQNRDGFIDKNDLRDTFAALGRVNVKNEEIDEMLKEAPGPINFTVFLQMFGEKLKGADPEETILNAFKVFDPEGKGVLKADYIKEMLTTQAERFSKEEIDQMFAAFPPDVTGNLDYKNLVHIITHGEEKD

IC50 | Compound
1000 to 15000 nM | C[C@@H](CC1CC(F)(F)C1)Nc1cc(=O)n(-c2cc(F)cc(F)c2)c(=O)[nH]1 [Compound 12, (S)-6-((1-(3,3-difluorocyclobutyl)propan-2-yl)amino)-3-(3,5-difluorophenyl)pyrimidine-2,4(1H,3H)-dione]
< 1000 nM | C[C@@H](CC1CCC(F)(F)CC1)Nc1cc(=O)n(-c2cc(F)cc(F)c2)c(=O)[nH]1 [Compound 11, (S)-6-((1-(4,4-difluorocyclohexyl)propan-2-yl)amino)-3-(3,5-difluorophenyl)pyrimidine-2,4(1H,3H)-dione]

Same assay, conditions: calcium concentration giving 75% activation (pCa75), read-out: Biochemical Activity (pCa75)

Compound | IC50
CC(C)n1c(=O)cc(NCC2CCC2)[nH]c1=O [Compound 7, 6-((cyclobutylmethyl)amino)-3-isopropylpyrimidine-2,4(1H,3H)-dione] | > 15000 nM
CC(C)n1c(=O)cc(NCCC2CCOCC2)[nH]c1=O [Compound 13, 3-isopropyl-6-((2-(tetrahydro-2H-pyran-4-yl)ethyl)amino) pyrimidine-2,4(1H,3H)-dione] | > 15000 nM
CC(C)n1c(=O)cc(NCC2CCCCCC2)[nH]c1=O [Compound 8, 6-((cycloheptylmethyl)amino)-3-isopropylpyrimidine-2,4(1H,3H)-dione] | < 1000 nM
C[C@H](Nc1cc(=O)n(C2CCOCC2)c(=O)[nH]1)C1CCC(F)(F)CC1 [Compound 4, (S)-6-((1-(4,4-difluorocyclohexyl)ethyl)amino)-3-(tetrahydro-2H-pyran-4-yl)pyrimidine-2,4(1H,3H)-dione] | 1000 to 15000 nM
C[C@H](Nc1cc(=O)n(C2CCN(S(C)(=O)=O)CC2)c(=O)[nH]1)C1CCCCC1 [Compound 15, (S)-6-((1-cyclohexylethyl)amino)-3-(1-(methylsulfonyl)piperidin-4-yl)pyrimidine-2,4(1H,3H)-dione] | < 1000 nM
CC(C)n1c(=O)cc(NCC2CCCC2)[nH]c1=O [Compound 2, 6-((Cyclopentylmethyl)amino)-3-isopropylpyrimidine-2,4(1H,3H)-dione] | > 15000 nM
CC(C)n1c(=O)cc(NCC2CCCCC2)[nH]c1=O [Compound 1, 6-((cyclohexylmethyl)amino)-3-isopropylpyrimidine-2,4(1H,3H)-dione] | 1000 to 15000 nM

Continued, values first:

IC50 | Compound
1000 to 15000 nM | CC(C)n1c(=O)cc(N[C@@H](C)CC2CCOCC2)[nH]c1=O [Compound 14, (S)-3-isopropyl-6-((1-(tetrahydro-2H-pyran-4-yl)propan-2-yl)amino)pyrimidine-2,4(1H,3H)-dione]
1000 to 15000 nM | CC(C)n1c(=O)cc(N[C@@H](C)CC2CC(F)(F)C2)[nH]c1=O [Compound 10, (S)-6-((1-(3,3-difluorocyclobutyl)propan-2-yl)amino)-3-isopropylpyrimidine-2,4(1H,3H)-dione]
< 1000 nM | CC(C)n1c(=O)cc(N[C@@H](C)CC2CCC(F)(F)CC2)[nH]c1=O [Compound 3, (S)-6-((1-(4,4-Difluorocyclohexyl)propan-2-yl)amino)-3-isopropylpyrimidine-2,4(1H,3H)-dione]
< 1000 nM | CC(C)n1c(=O)cc(N[C@@H](C)C2CCC(F)(F)CC2)[nH]c1=O [Compound 9, (S)-6-((1-(4,4-difluorocyclohexyl)ethyl)amino)-3-isopropylpyrimidine-2,4(1H,3H)-dione]
< 1000 nM | CC(C)n1c(=O)[nH]c(N[C@@H](C)C2CCC(F)(F)CC2)c(F)c1=O [Compound 5, (S)-6-((1-(4,4-difluorocyclohexyl)ethyl)amino)-5-fluoro-3-isopropylpyrimidine-2,4(1H,3H)-dione]
< 1000 nM | CC(C)n1c(=O)cc(N[C@@H](C)C2CCCCC2)[nH]c1=O [Compound 6, (S)-6-((1-cyclohexylethyl)amino)-3-isopropylpyrimidine-2,4(1H,3H)-dione]

What follows are compounds tested on adult rat ventricular myocytes (assay: Cardiomyocyte contractility assay (fractional shortening, IonOptix edge detection)). Settings: Ventricular myocyte, 0.3 uM compound, 1 Hz pacing.
Assay type: cell-based
Experimental: Contractility of adult rat ventricular myocytes is determined by edge detection with an IonOptix contractility system. Aliquots of myocytes in Tyrode buffer (137 mM NaCl, 3.7 mM KCl, 0.5 mM MgCl2, 1.5 mM CaCl2, 4 mM HEPES, 11 mM glucose) are placed in a perfusion chamber (Series 20 RC-27NE; Warner Instruments), allowed to adhere to the coverslip, and then perfused with 37° C. Tyrode buffer. Myocytes are filed stimulated at 1 Hz and 10V. Only myocytes with clear striations, quiescent prior to pacing, with a cell length of 120-180 microns, a basal fractional shortening equal to 3-8% of the cell length, and a contraction velocity greater than 100 microns per second are used for contractility experiments. To determine the response to compounds, myocytes are first perfused for 60 seconds with Tyrodes buffer followed by 5 minutes of compound and a 140 second washout with Tyrodes buffer. Data is continuously recorded using IonOptix software. Contractility data is analyzed using lonwizard software (IonOptix). For each cell, 10-20 contractility transients were averaged and compared under basal (no compound) and compound-treated conditions. Compound activity is measured by effects on fractional shortening (FS), where fractional shortening is the ratio of the peak length of the cell at contraction divided by the basal cell length normalized to 100% for an untreated cell.

Compound | inhibition at 0.3 µM
CC(C)n1c(=O)cc(N[C@@H](C)CC2CCC(F)(F)CC2)[nH]c1=O [Compound 3, (S)-6-((1-(4,4-Difluorocyclohexyl)propan-2-yl)amino)-3-isopropylpyrimidine-2,4(1H,3H)-dione] | > 66%

Same assay, conditions: Ventricular myocyte, 1.0 uM compound, 1 Hz pacing

Compound | inhibition at 1 µM
CC(C)n1c(=O)cc(N[C@@H](C)C2CCC(F)(F)CC2)[nH]c1=O [Compound 9, (S)-6-((1-(4,4-difluorocyclohexyl)ethyl)amino)-3-isopropylpyrimidine-2,4(1H,3H)-dione] | > 66%
CC(C)n1c(=O)[nH]c(N[C@@H](C)C2CCC(F)(F)CC2)c(F)c1=O [Compound 5, (S)-6-((1-(4,4-difluorocyclohexyl)ethyl)amino)-5-fluoro-3-isopropylpyrimidine-2,4(1H,3H)-dione] | 33 to 66%
